The test system of series [1] is Mycolicibacterium smegmatis. The series is described as follows: Antimycobacterial activity against Mycobacterium smegmatis mc2 155 harbouring pMyC empty vector assessed as inhibition of mycobacterial growth incubated for 3 to 5 days by resazurin microtiter assay. Type of series: functional. The following applies: time 3-5 day. (Resazurin is reduced to fluorescent resorufin, in cell work by metabolically active cells.)

The test system of series [2] is Mycobacteroides abscessus. The series is described as follows: Antimycobacterial activity against Mycobacterium abscessus CIP104536T with rough morphotype assessed as inhibition of mycobacterial growth incubated for 3 to 5 days by resazurin microtiter assay. It is filed as functional. The following applies: time 3-5 day.
The nature of series [3]: Selectivity index, ratio of MIC90 for antimycobacterial activity against Mycobacterium smegmatis mc2 155 harbouring pMyC empty vector to MIC90 for antimycobacterial activity against wild type Mycobacterium smegmatis mc2 155. Type of series: functional.
Series [4] relates to Mycolicibacterium smegmatis. Kind of series: Antimycobacterial activity against wild type Mycobacterium smegmatis mc2 155 assessed as inhibition of mycobacterial growth incubated for 3 to 5 days by resazurin microtiter assay. The following applies: time 3-5 day. Type of series: functional.
A short description of series [5]: Selectivity index, ratio of MIC50 for antimycobacterial activity against Mycobacterium smegmatis mc2 155 harbouring pMyC empty vector to MIC50 for antimycobacterial activity against wild type Mycobacterium smegmatis mc2 155. Type of series: functional.
Series [6] relates to Mycobacteroides abscessus. Kind of series: Antimycobacterial activity against Mycobacterium abscessus CIP104536T with smooth morphotype assessed as inhibition of mycobacterial growth incubated for 3 to 5 days by resazurin microtiter assay. Type of series: functional. The settings on record: time 3-5 day.
Series [7] concerns Mycobacterium tuberculosis. Kind of series: Antimycobacterial activity against Mycobacterium tuberculosis mc2 6230 assessed as inhibition of mycobacterial growth incubated for 10 to 14 days by resazurin microtiter assay. Type of series: functional. The settings on record: time 10-14 day.
In the next series the test system is Mycobacterium marinum. Kind of series: Antimycobacterial activity against Mycobacterium marinum ATCC BAA-535/M assessed as inhibition of mycobacterial growth incubated for 10 to 14 days by resazurin microtiter assay. It is filed as functional. The settings on record: time 10-14 day.
The test system of series [8] is Mycolicibacterium smegmatis. The series is described as follows: Antimycobacterial activity against Mycobacterium smegmatis mc2 155 harbouring pMyC::PDFMtb overexpression mutant assessed as inhibition of mycobacterial growth incubated for 3 to 5 days by resazurin microtiter assay. The following applies: time 3-5 day. Type of series: functional.
Series [9] can be described thus: (§1) Cytotoxicity against C57BL/6 mouse BMDM cells assessed as reduction in cell viability measured after 24 hrs by resazurin dye based assay. Type of series: toxicity. The following applies: C57BL/6, mouse, BMDM cells (bone marrow-derived macrophages).
Series [10] is described as follows: Selectivity index, ratio of MIC50 for antimycobacterial activity against Mycobacterium smegmatis mc2 155 harbouring pMyC::PDFMtb overexpression mutant to MIC50 for antimycobacterial activity against wild type Mycobacterium smegmatis mc2 155. Type of series: functional.
Series [11] is described as follows: Selectivity index, ratio of MIC90 for antimycobacterial activity against Mycobacterium smegmatis mc2 155 harbouring pMyC::PDFMtb overexpression mutant to MIC90 for antimycobacterial activity against wild type Mycobacterium smegmatis mc2 155. Type of series: functional.
Series [12] is described as follows: Cytotoxicity against mouse BMDM cells. Type of series: toxicity, cell-based. The following applies: BMDM cells (bone marrow-derived macrophages).
Series [13] in a line: Inhibition of Mycobacterium tuberculosis H37Rv PDF expressed in Escherichia coli using N-formyl-methionine-alanine-serine as substrate incubated for 2.5 mins by fluorescence based microplate reader analysis.
For series [14], the system named is Mycobacterium tuberculosis. Kind of series: Antimycobacterial activity against Mycobacterium tuberculosis H37Rv assessed as inhibition of bacterial growth incubated for 8 days. It is filed as functional. The following applies: 192 h, time 8 day.
Another series relates to BMDM. The series is described as §1. Type of series: toxicity. The settings on record: mouse, bmdm, 24 h.

SMILES strings stand for the structures. In brackets after ≈: the same amount, converted by molar mass.

As to `NNC(=O)/C=C/c1ccc(-c2ccccc2)cc1`, the MIC50 (usually an inhibitory concentration at the 50% level, which refers to growth in some studies and to a panel of isolates in others) in series [1] was 7.2 µg/mL (≈ 30.2 µM); in series [2] it was 18.9 µg/mL (≈ 79.3 µM); in series [4], 9.6 µg/mL (≈ 40.3 µM); in [6], > 100 µg/mL; in series [7], 13.1 µg/mL (≈ 55 µM); in the series with Mycobacterium marinum, 22.2 µg/mL (≈ 93.2 µM). Besides, in series [8], the MIC50 was 56.6 µg/mL (≈ 238 µM). Also, the MIC90 (usually an inhibitory concentration at the 90% level, which refers to growth in some studies and to a panel of isolates in others) is 43.8 µg/mL (≈ 184 µM) in [1]; > 100 µg/mL in series [2]; 53.6 µg/mL (≈ 225 µM) in series [4]; 22 µg/mL (≈ 92.3 µM) in series [7]; 71.5 µg/mL (≈ 300 µM) in the series with Mycobacterium marinum; > 200 µg/mL in series [8]. Besides, the Ratio in series [3] is 0.75; in [5] it was 0.75; in series [10], 5.9; in [11], > 3.7. Moreover, the CC50 (commonly the concentration giving 50% cytotoxicity) at 24 h in series [9] was determined as 125 µg/mL (≈ 525 µM).

Take `NCC[C@H](O)C(=O)N[C@@H]1C[C@H](N)[C@@H](O[C@H]2O[C@H](CN)[C@@H](O)[C@H](O)[C@H]2O)[C@H](O)[C@H]1O[C@H]1O[C@H](CO)[C@@H](O)[C@H](N)[C@H]1O` [AMIKACIN]: the MIC50 came to 4.3 µg/mL (≈ 7.34 µM) in [2], 2.3 µg/mL (≈ 3.93 µM) in series [6], 0.24 µg/mL (≈ 0.41 µM) in series [7] and 0.62 µg/mL (≈ 1.06 µM) with Mycobacterium marinum. Moreover, the MIC90 was determined as 5.9 µg/mL (≈ 10.1 µM) in series [2], 3.4 µg/mL (≈ 5.81 µM) in series [6], 0.37 µg/mL (≈ 0.632 µM) in series [7] and 1.7 µg/mL (≈ 2.9 µM) in the series on Mycobacterium marinum. Besides, the 50% cytotoxic concentration (CC50) in [12] is > 90 µg/mL.

In the case of `CCCC[C@H](CN(O)C=O)C(=O)N1CCC[C@H]1C(=O)Nc1ccccn1`, inhibition in [13] was half-maximal at 69.5 nM (IC50).

For `CO[C@H]1/C=C/O[C@@]2(C)Oc3c(C)c(O)c4c(O)c(c(/C=N/N5CCN(C)CC5)c(O)c4c3C2=O)NC(=O)/C(C)=C\C=C\[C@H](C)[C@H](O)[C@@H](C)[C@@H](O)[C@@H](C)[C@H](OC(C)=O)[C@@H]1C` [RIFAMPIN], the MIC50 was found to be 0.57 µg/mL (≈ 0.693 µM) in series [1], 0.76 µg/mL (≈ 0.924 µM) in series [4] and 0.63 µg/mL (≈ 0.766 µM) in series [8]. Moreover, the MIC90 in series [1] worked out at 2.83 µg/mL (≈ 3.44 µM); in [4], 0.76 µg/mL (≈ 0.924 µM); in series [8], 2.4 µg/mL (≈ 2.92 µM). The Ratio in series [3] was found to be 1.09; in series [5], 0.75; in series [10], 0.83; in series [11] it was 0.93.

Regarding `NC[C@H]1O[C@H](O[C@H]2[C@H](O)[C@@H](O[C@H]3O[C@H](CO)[C@@H](O)[C@H](N)[C@H]3O)[C@H](N)C[C@@H]2N)[C@H](O)[C@@H](O)[C@@H]1O` [KANAMYCIN], the MIC50 was 0.48 µg/mL (≈ 0.991 µM) in series [1], 0.4 µg/mL (≈ 0.826 µM) in series [4] and 0.49 µg/mL (≈ 1.01 µM) in series [8]. The MIC90 in series [1] is 1.07 µg/mL (≈ 2.21 µM); in series [4], 0.94 µg/mL (≈ 1.94 µM); in series [8], 0.87 µg/mL (≈ 1.8 µM). The Ratio in [3] is 1.14; in series [5], 1.2; in series [10], 1.23; in series [11], 0.93.

Regarding `CCCCCC(=O)ONC(=O)/C=C/c1ccc(OC)cc1`, the MIC50 is > 100 µg/mL in [2], 63 µg/mL (≈ 216 µM) in series [6], 32.8 µg/mL (≈ 113 µM) in [7] and 21.2 µg/mL (≈ 72.8 µM) in the series on Mycobacterium marinum. For the same compound, the MIC90 in series [6] is 76.5 µg/mL (≈ 263 µM); in series [7], 61.4 µg/mL (≈ 211 µM); with Mycobacterium marinum, 46.7 µg/mL (≈ 160 µM). The cytotoxic concentration (CC50) at 24 h in series [9] was > 125 µg/mL.

Regarding `O=C(/C=C/c1ccc2c(c1)OCO2)NO`, the MIC50 in series [2] is > 100 µg/mL; in series [6], > 100 µg/mL; in [7] it was 31.9 µg/mL (≈ 154 µM); in the series on Mycobacterium marinum, > 100 µg/mL. Besides, in [7], the MIC90 is > 100 µg/mL. Besides, in series [9], the CC50 at 24 h was found to be 34 µg/mL (≈ 164 µM).

`NNC(=O)/C=C/C=C/c1cccc(F)c1`: the MIC50 (in series [2]; in series [6]; in series [7]; in the series on Mycobacterium marinum) was > 100 µg/mL in each case. Also, the cytotoxic concentration (CC50) at 24 h in series [9] was > 125 µg/mL.

For `O=C(/C=C/c1ccncc1)NO`, the MIC50 in series [2] is > 100 µg/mL; in series [6] it was > 100 µg/mL; in series [7] it was 35.1 µg/mL (≈ 214 µM); with Mycobacterium marinum, 75 µg/mL (≈ 457 µM). The MIC90 in series [7] is 42.9 µg/mL (≈ 261 µM); in the series on Mycobacterium marinum, > 100 µg/mL. Further, the CC50 at 24 h in series [9] was < 10 µg/mL.

Regarding `NNC(=O)/C=C/c1cccc(F)c1`, the MIC50 is > 100 µg/mL in [2], > 100 µg/mL in series [6], 65.8 µg/mL (≈ 365 µM) in series [7] and 41.1 µg/mL (≈ 228 µM) in the series on Mycobacterium marinum. The MIC90 (in series [7]; in the series with Mycobacterium marinum) was > 100 µg/mL each time. In addition, in series [9], the CC50 at 24 h was > 125 µg/mL.

With `O=C(/C=C/C=C/c1ccc(C(F)(F)F)cc1)NO`, the MIC50 in series [2] was 5.5 µg/mL (≈ 21.4 µM); in series [6], > 100 µg/mL; in [7] it was 28.8 µg/mL (≈ 112 µM); with Mycobacterium marinum, > 100 µg/mL. Moreover, the MIC90 in series [2] is 10.9 µg/mL (≈ 42.4 µM); in series [7], 80.6 µg/mL (≈ 313 µM). For the same compound, in series [9], the CC50 at 24 h is < 10 µg/mL.

Turning to `NNC(=O)c1ccncc1` [ISONIAZID], the MIC50 in [1] turned out to be 1.3 µg/mL (≈ 9.48 µM); in [4] it was 1.4 µg/mL (≈ 10.2 µM); in [7] it was 0.07 µg/mL (≈ 0.51 µM); with Mycobacterium marinum, 2.8 µg/mL (≈ 20.4 µM); in series [8], 1.2 µg/mL (≈ 8.75 µM). Further, the MIC90 in series [1] was found to be 2.7 µg/mL (≈ 19.7 µM); in series [4], 3.1 µg/mL (≈ 22.6 µM); in series [7], 0.11 µg/mL (≈ 0.802 µM); in the series with Mycobacterium marinum, 9.2 µg/mL (≈ 67.1 µM); in [8], 2.5 µg/mL (≈ 18.2 µM). In addition, in series [14], the MIC (as a rule, the smallest concentration in the dilution series that meets the test's criterion for growth inhibition) is 0.1 µg/mL (≈ 0.729 µM). Further, the Ratio was 0.86 in series [3], 0.9 in series [5], 0.84 in series [10] and 0.8 in series [11]. Moreover, the half-maximal cytotoxic concentration (CC50) in [12] is > 20 µg/mL.

For `O=C(CCc1ccccc1)NO`, the MIC50 in [2] is > 100 µg/mL; in [6], > 100 µg/mL; in series [7], > 100 µg/mL; in the series on Mycobacterium marinum, 11.9 µg/mL (≈ 72 µM). Further, the MIC90 in the series with Mycobacterium marinum came out at 89.3 µg/mL (≈ 541 µM). In series [9], the CC50 at 24 h came to 95 µg/mL (≈ 575 µM).

`O=C(/C=C/C=C/c1ccc(-c2ccccc2)cc1)NO`: the MIC50 was 6.9 µg/mL (≈ 26 µM) in [2], 31.8 µg/mL (≈ 120 µM) in series [6], > 100 µg/mL in series [7] and > 100 µg/mL with Mycobacterium marinum. Also, the MIC90 in series [2] was 7.5 µg/mL (≈ 28.3 µM); in series [6], > 100 µg/mL. In addition, the CC50 at 24 h in series [9] is > 125 µg/mL.

As to `NNC(=O)/C=C/c1ccc2c(c1)OCO2`, the MIC50 (in series [2]; in series [6]; in series [7]; with Mycobacterium marinum) was > 100 µg/mL each time. Besides, in series [9], the CC50 at 24 h came out at 123 µg/mL (≈ 597 µM).

As for `Cl.O=C(/C=C/c1ccncc1)NO`, the MIC50 was > 100 µg/mL in [2], > 100 µg/mL in series [6], 32.1 µg/mL in [7] and 12.6 µg/mL in the series on Mycobacterium marinum. The MIC90 in series [7] was 33.6 µg/mL; with Mycobacterium marinum, 54 µg/mL. Moreover, in the series on BMDM, the CC50 was < 10 µg/mL.

Values taken from ChEMBL document CHEMBL5143637, “Design, synthesis and antibacterial activity against pathogenic mycobacteria of conjugated hydroxamic acids, hydrazides and O-alkyl/O-acyl protected hydroxamic derivatives” (Bioorg Med Chem Lett, 2022).
